Read-outs that look alike come from different tables or passages of the source.
Experiments:
[1] = tested on: subjects with relapsing remitting multiple sclerosis (RRMS); test: ALLEGRO (MS-LAQ-301) phase III trial: confirmed relapse endpoints; assay type: in vivo, human; design: key to Annualized relapse rate, adjusted mean (SE): ARR = number of relapses divided by total patient exposure; settings: for Annualized relapse rate, adjusted mean (SE): 24-month treatment period
Source text: The primary endpoint of the study was the number of confirmed relapses during the double-blind treatment period, which corresponds to the annualized relapse rate (ARR—number of relapses divided by total exposure of all patients). Secondary endpoints included disability as measured by Expanded Disability Status Scale (EDSS) changes confirmed at 3 months, and cumulative number of gadolinium enhancing (GdE) and new/enlarging T2 MRI lesions. Eligible subjects were equally randomized 1:1 into one of the following treatment arms: • 1. […] 21, 2007 (see, page 10, line 5 to page 11, line 3). • 2. Matching placebo for laquinimod arm: one capsule is administered once daily. The primary endpoint was the number of confirmed relapses during the double-blind study period. A relapse was defined as the appearance of one or more new neurological abnormalities or the reappearance of one or more previously observed neurological abnormalities lasting for at least 48 hours and after an improved neurological state for at least 30 days. An event was counted as a relapse if the subject's symptoms were accompanied by observed objective neurological changes consistent with at least one of the following: an increase of at least 0.5 in the EDSS score; an increase of one grade in two or more of the seven functional systems; or an increase of two grades in one functional system. Standardized treatment of relapses was intravenous methylprednisolone 1 g/day for up to five consecutive days based on the treating neurologist's decision. The analysis of the total number of confirmed relapses during the study period is based on baseline adjusted Quasi-Likelihood (over-dispersed) Poisson Regression. Using the Poisson regression with the treatment group as a covariate, the ARR of each group was calculated for the intent-to-treat (ITT) cohort as the total number of confirmed relapses for all patients in each group divided by the total patient years in that group. In addition to the treatment group, the following covariates were included: baseline EDSS score, log of the (prior 2-year number of relapses +1) and country or geographical region.

[2] = tested on: relapsing MS; settings: cited from earlier work; for Development of active MRI lesions in relapsing MS: Polman, 2005
[3] = tested on: subjects with relapsing remitting multiple sclerosis (RRMS); test: ALLEGRO phase III trial: safety and tolerability; assay type: in vivo, human
Description: Eligible subjects were equally randomized 1:1 into one of the following treatment arms: • 1. […] 21, 2007 (see, page 10, line 5 to page 11, line 3). • 2. Matching placebo for laquinimod arm: one capsule is administered once daily.
The following assessments were performed at specified time points: • 1. Vital signs were measured at each study visit. • 2. A physical examination is performed at months −1 (screening), (baseline) 1, 3, 6, 12, 18 and 24 (termination/early discontinuation core study). In case of the 6 months extended study, additional examination was performed at month 30 (termination/early discontinuation of extended study). • 3. The following safety clinical laboratory tests were performed: • a. Complete blood count (CBC) with differential—at all scheduled visits. A reticulocyte count was added to the CBC at months 0 (baseline) and 24/30 (termination/early discontinuation). • b. Serum chemistry (including electrolytes, liver enzymes, direct and total bilirubin and pancreatic amylase and CPK), and urinalysis—at all scheduled visits. • c. A rapid urine β-hCG test was performed in women of child-bearing potential at baseline (month 0) and at each scheduled study visit thereafter (at site). • d. β-hCG in women of child-bearing potential was performed at all scheduled visits. • e. Starting after visit Month 3 a rapid urine β-hCG test was performed in women of child-bearing potential every 28 (±2) days. […] Adverse Events (AEs) are monitored throughout the study. • 9. Concomitant medications are monitored throughout the study. • 10. […] MS functional Composite (MSFC) was assessed at months −1 (screening) (three practices for training purposes only), at month 0 (baseline), 6, 12, 18 and 24 (termination/early discontinuation). […] Subject-reported fatigue was assessed by the Modified Fatigue Impact Scale (MFIS) at months 0, 6, 12, 18, and 24 (termination/early discontinuation). […] The general health status was assessed by the EuroQoL (EQ5D) questionnaire at month 0 (baseline) and month 24 (termination/early discontinuation of the study). […]

[4] = 0.6 mg daily oral vs placebo, 24 months
[5] = post-hoc, vs placebo, listed as laquinimod

## CCN(C(=O)c1c(O)c2c(Cl)cccc2n(C)c1=O)c1ccccc1 [Laquinimod, laquinimod]
[1]; 0.6 mg daily oral vs placebo
  Annualized rate of relapses requiring hospitalization and/or IV steroids, reduction: 27% reduction
  Increase in the time to first relapse: 28.2%
  Time to 1st confirmed relapse: reduction for the risk of 1st confirmed relapse: 28% reduction for the
[1]; [4]
  Annualized relapse rate, reduction: 23% reduction
  Increase in odds to be relapse free: 55% increase odds to
[1]; 0.6 mg daily oral vs placebo, 24 months, listed as laquinimod
  Increase in odds to be relapse free: 55%
[1]; 0.6 mg daily oral
  Annualized relapse rate, adjusted mean (SE): 0.304
[1]; 0.6 mg daily oral, listed as laquinimod
  Annualized relapse rate, adjusted mean (SE): 0.304±0.022
[1]; 0.6 mg daily oral, 24 months
  Annualized rate of relapses requiring hospitalization and/or IV steroids, adjusted mean: 0.242
  Relapse-free during study, adjusted proportion: 62.90%
[1]; 0.6 mg daily oral, 24 months, listed as laquinimod
  Relapse-free during study, adjusted proportion: 62.9%
[1]; post-hoc, 0.6 mg daily oral
  ARR 1st year: 0.343
  ARR for dropouts: 0.640
  Annualized rate of relapses requiring IV steroids: 0.263
  Annualized rate of relapses requiring hospitalization: 0.071
  Relapses with full recovery (EDSS before and after attack): 0.155
  Relapses with no recovery (EDSS before and after attack): 0.06
  Unconfirmed relapses: 0.094
[1]; post-hoc, relapse duration >34 days (n~100)
  ARR by median relapse duration: 0.964
[1]; post-hoc, relapse duration >34 days (n~100), vs placebo
  ARR by median relapse duration, reduction: 1.3% reduction
[1]; post-hoc, relapse duration ≦34 days
  ARR by median relapse duration: 0.153
[1]; post-hoc, relapse duration ≦34 days, vs placebo
  ARR by median relapse duration, reduction: 37% reduction
[1]; post-hoc, vs placebo
  ARR 1st year, reduction: 24% reduction
  ARR for dropouts, reduction: 26% reduction
  Relapses requiring IV steroids, reduction: 27% reduction
  Relapses requiring hospitalization, reduction: 38% reduction
  Relapses with full recovery, reduction: 13% reduction
  Relapses with no recovery, reduction: 24% reduction
  Unconfirmed relapses, reduction: 17% reduction
[1]; [5]
  Relapses requiring IV steroids, reduction: 27%
  Relapses requiring hospitalization, reduction: 38%
[2]; 0.3 mg/day oral dose, Comi, 2007
  MRI and clinical effect as compared to placebo: neither MRI nor clinical effect
[2]; 0.3 mg/day oral dose
  Development of active MRI lesions in relapsing MS: reduce development of active MRI lesions
[2]
  Development of active MRI lesions in relapsing MS: reduce development of active MRI lesions
[3]; 0.6 mg daily oral, 24 months
  Deaths: No deaths
[3]; human, in vivo
  Time of occurrence of ALT elevations up to 5×ULN: ≤ 6 months
[3]; in vivo
  Reversibility of ALT elevations up to 5×ULN: all were reversible

Source: patent US20120142730A1 (priority 2010, published 2012)
